Measurements taken from US11147796B2, “Agent for preventing or ameliorating hearing impairment” (Tohoku University, priority 2017, dated 2021).

Assays:
inner ear cells = test: Amount of ATP production in cultured inner ear; assay type: cell-based, mouse; settings: compound 10 μM; 3 hour results
Experimental: In the following Examples 2, 3, and 5, “m.1555A>G mutant” cells were obtained by skin reproductive to a patient having “m.1555A>G mutation” to obtain dermal fibroblasts, then 10% Primary culture was carried out in DMEM (low glucose) culture solution (manufactured by Nacalai Tesque, Inc) containing FBS (Fetal bovine serum) under the condition of 5% CO2/20% O2, at 37° C. and isolated. In the following Examples 4 and 5, the inner ear culture was carried out in DMEM (high glucose) culture medium containing 10% FBS (Fetal bovine serum) under the condition of 5% CO2/20% O2, at 37° C.
[1] The inner ear of P3 mice was isolated and cultured in culture solution for 24 hours.
[2] The compound #5 synthesized in Example 1 was mixed in the culture solution to be 10 μM and cultured for various times (3 hours, 6 hours, and 12 hours). […] [3] The concentration of ATP in the culture solution was measured with “cellular” ATP assay reagent (manufactured by Toyo Binet).

Ndufs 4 KO mice = test: Hearing ability by auditory brainstem response (ABR) in Ndufs 4 KO mice; assay type: in vivo, mouse; settings: vs non-administration KO
Experimental: Ndufs 4 KO mice (mutant mice due to the substitution of the second exon of the Ndufs 4 gene with Neo sandwiched between loxP sequences) were purchased from Jacson Laboratory. The genetic background of the mouse was C57BL/6, and 60 days old (body weight 10 to 13 g) was used. Compound #5 (1 mg/kg body weight/day) synthesized in Example 1 was orally administered to Ndufs 4 KO mice (administration group of Ndufs 4 KO mice, n=5), between 28 and 60 days of age, at 60 days of age, the hearing ability of the compound #5 administration group was evaluated by auditory brainstem response (ABR). As a control, the hearing ability of Nudfs 4 KO mice not received compound #5 (non-administration group of Ndufs 4 KO mice, n=4), wild type mice not received compound #5 (non-administration group of wild type mice, n=3) and Ndufs 4 hetero KO mice not received compound N #5 (non-administration group of Ndufs 4 hetero KO mice, n=4) was assessed by ABR at 60 days of age. In measuring the hearing ability, a mixture of ketamine (100 mg/kg body weight) and xylazine (20 mg/kg body weight) were anesthetized by intraperitoneal injection of mice. ABR was also analyzed using TDT System 3 workstation and BioSigRP software (Tucker-Davis Technologies). The averaging (1000 times) of the evoked response to the tone burst sound of each frequency (4, 8, 12, 16, and 32 kHz) was recorded. Stimuli sounds were presented at 5 dB intervals from each frequency, 100 dB SPL (Sound Pressure Level) to 10 dB SPL. […]
Using Ndufs 4 KO mice and their littermate wild type mice (littermate wild type mice), the hearing power of littermate wild type mice not received compound #5 (non-administration group of wild-type mice, n=5), Ndufs 4 KO mice not received compound #5 (non-administration group of Ndufs 4 KO mice, n=5) and Ndufs 4 KO mice received compound #5 (administration group of Ndufs 4 KO mice, n=5) were evaluated by ABR at 28 days of age and 60 days of age according to the method described in the item “6-1” of Example 6. […]

[1] = test system: wild-type male mice (C57BL/6) exposed to strong sound; test: Hearing ability by ABR after strong acoustic exposure; assay type: in vivo, mouse; settings: vs non-administration group
Experimental: Ndufs 4 KO mice (mutant mice due to the substitution of the second exon of the Ndufs 4 gene with Neo sandwiched between loxP sequences) were purchased from Jacson Laboratory. The genetic background of the mouse was C57BL/6, and 60 days old (body weight 10 to 13 g) was used. Compound #5 (1 mg/kg body weight/day) synthesized in Example 1 was orally administered to Ndufs 4 KO mice (administration group of Ndufs 4 KO mice, n=5), between 28 and 60 days of age, at 60 days of age, the hearing ability of the compound #5 administration group was evaluated by auditory brainstem response (ABR). As a control, the hearing ability of Nudfs 4 KO mice not received compound #5 (non-administration group of Ndufs 4 KO mice, n=4), wild type mice not received compound #5 (non-administration group of wild type mice, n=3) and Ndufs 4 hetero KO mice not received compound N #5 (non-administration group of Ndufs 4 hetero KO mice, n=4) was assessed by ABR at 60 days of age. In measuring the hearing ability, a mixture of ketamine (100 mg/kg body weight) and xylazine (20 mg/kg body weight) were anesthetized by intraperitoneal injection of mice. ABR was also analyzed using TDT System 3 workstation and BioSigRP software (Tucker-Davis Technologies). The averaging (1000 times) of the evoked response to the tone burst sound of each frequency (4, 8, 12, 16, and 32 kHz) was recorded. Stimuli sounds were presented at 5 dB intervals from each frequency, 100 dB SPL (Sound Pressure Level) to 10 dB SPL. The threshold value of ABR was set as the minimum sound pressure threshold value at which at least one waveform was confirmed with reproducibility.
Six male wild-type male mice (C57BL/6) were inoculated into each of three groups (non-administration group of wild type mice, administration (1) group of wild type mice and administration (10) group of wild type mice). Compound #5 (1 mg/kg body weight/day) was orally administered to the administration (1) group of wild type mice for 1 week, compound group #5 (10 mg/kg body weight/day) for 1 week. Compound #5 was not administered to the non-administration group of wild-type mice. After oral administration for 1 week, each group of mice was placed in a chamber for strong acoustic exposure in an awake state, and octave band noise of sound pressure level 100 dB SPL, 8 to 16 kHz was exposed for 2 hours. Noise was generated with a noise generator (SF-06, Random Noise Generator; manufactured by RION), then amplified with an amplifier (D-75A; manufactured by Crown), and the audio was filtered with an audio filter (Multifunction Filter; manufactured by NF Corporation). The frequency band was set and outputted by a speaker (2446H; manufactured by JBL) attached to the center of the ceiling in the chamber. The sound pressure level was measured and confirmed with a sound pressure measuring device (2250L; manufactured by Bruel & Kjar) for each experiment. Hearing power was evaluated by ABR according to the method described in item “6-1” of Example 6 before strong-acoustic exposure and 4 hours after exposure.

[2] = 1 mg/kg body weight/day oral for 1 week
[3] = 10 mg/kg body weight/day oral for 1 week

## O=C(CC(C(=O)O)c1c[nH]c2ccccc12)c1ccc(F)cc1F (stereo not drawn) [compound #5, 4-(2,4-Difluorophenyl)-2-(1H-indol-3-yl)-4-oxo-butanoic Acid]
Inner ear cells
  amount of ATP production: increases
Ndufs 4 KO mice; Example 6, 1 mg/kg body weight/day oral, 28 to 60 days of age, measured at 60 days
  ABR threshold: lower than the ABR threshold in the non-administration group of Ndufs 4 KO mice
Ndufs 4 KO mice; Example 7, 1 mg/kg body weight/day oral, at 60 days of age
  ABR threshold value: decreased
Ndufs 4 KO mice; Example 8, 0.3 mg/kg body weight/day oral
  ABR threshold: decreased
[1]; [2]
  ABR threshold change before and after strong acoustic exposure: decreased
  ABR threshold value after 4 hours of strong acoustic exposure: lower
[1]; [3]
  ABR threshold change before and after strong acoustic exposure: decreased
  ABR threshold value after 4 hours of strong acoustic exposure: lower
[1]; 1 and 10 mg/kg body weight/day oral for 1 week
  ABR threshold values before strong acoustic exposure: no difference
